Measurements: patent US20230233584A1, “EXTENDED RELEASE 5-HT RECEPTOR AGONISTS FOR NEUROLOGICAL CONDITIONS” (Diamond Therapeutics Inc., priority 2020, published 2023)

Columns and labels:
Long Evans rats = test: 5-choice serial reaction time task (5CSRTT), acute dosing, standard conditions; format: in vivo; settings: for pro-cognitive effect measured as % hit: p=0.05
Description: General: Experiments were conducted to test psilocybin doses in the range of 0.01-0.2 mg/kg psilocybin administered S.C. across progressive ratio (PR) and 5-choice serial reaction time task (5CSRTT) to examine the effect of psilocybin on endophenotypes of motivation and attention. In each study, a population of out-bred Long Evans rats was first tested as a group for response to the PR and 5CSRTT. Each group was then divided into subgroups by tertiles according to performance, and then exposed to various dose levels immediately prior to re-testing at various psilocybin dose levels.
The 5CSRTT involves evaluating test subject response to a brief visual stimulus (Higgins, Guy & Silenieks, Leonardo. (2017). Rodent Test of Attention and Impulsivity: The 5-Choice Serial Reaction Time Task: The 5-Choice Serial Reaction Time Task. 10.1002/cpph.27). Animals are trained to make a nose-poke response to a stimulus location in order to collect a food reward. The task allows the experimenter to measure animal performance in multiple domains including: • Attention • Impulsivity • Perseveration • Speed of response
A strength of the test is its flexible configuration to challenge test subjects: • Standard test conditions (0.75 s stimulus duration (SD), 5 s inter-trial interval (ITI), 100 trials) • Multiple short stimulus duration (mSD) (0.03-1 s SD) • Fixed long ITI (5 s vs. 10 s ITI) • Multiple ultrashort ITI (2-5 s ITI) • Extended 250 trials
Asterisk (*) indicates statistical significance vs. vehicle. (FIG. 3A).
When this population is segmented into tertiles according to performance based on accuracy (% correct, calculated as # correct/(# correct+# incorrect)*100), the lowest performing tertile (N=8) are considered to be low attentive and potentially representative of a low attentive endophenotype of depression (FIG. 6A). Low attentive rats also score poorly on % hit (FIG. 6B) and have a slower response speed (FIG. 6D). […] Asterisk (*) indicates statistical significance vs. vehicle.

[1] = Minipump infusion of psilocybin over 12 days: plasma/blood exposure; format: in vivo, rats; settings: psilocybin minipump, days 4-12, rats
Description: A dose of psilocybin, which is free from perceptual and behavioral side effects, was dosed in rats (N=24) continuously over a period of 12 days using an Alzet minipump implanted in rats of approximately 380-390 g body weight. The pump was primed to deliver psilocybin at 5 mg/kg/day pump concentration. The target plasma concentration was 10 ng/ml psilocin with actual plasma concentration 9.3+1.3 ng/ml over the 12 day study period.
Blood was collected from rats on days 4, 8 and 12 to measure levels of psilocybin and psilocin in Group B rats. Blood was collected via saphenous bleed at a standard timepoint which will not interfere with 5-choice testing. Psilocin blood levels were in the range of 8-10 ng/ml over days 4-12, while psilocybin blood levels were in the range of 2-5 ng/ml over days 4-12 (FIG. 7A), corresponding to 10 ng/mL psilocin. […] The present observations recorded for psilocybin/psilocin are occurring at exposure levels of psilocin ˜10 ng/ml (e.g., FIG. 5), likely resulting in a low level of CNS 5-HT2A receptor occupancy, and which is insufficient to elicit cardinal signs of 5-HT2A receptor activation such as WDS/BMC in rats (e.g., FIG. 1B).

[2] = Psilocybin and psilocin plasma pharmacokinetics after s.c. psilocybin; format: in vivo, rats; settings: rats; for AUC0-tlast, Mean / Cmax, Mean / Cmax/Dose, Mean / tmax, Mean / AUC0-inf, Mean / AUC0-inf/Dose, Mean / Apparent t1/2, Mean / MRT0-inf, Mean: psilocybin in plasma
Description: Psilocybin doses of 0.05, 0.1, 1, 10 mg/kg were used to evaluate psilocybin and psilocin PK in rats. For the doses of psilocybin that positively effect behaviors in the low performers in the PR and 5CSRTT, e.g., 0.05-0.1 mg/kg, the corresponding Cm. of psilocin was ˜7±2 ng/ml at 30 minutes for 0.05 mg/kg, and at a dose of 0.1 mg/kg, the Cm. of psilocin was determined to be ˜12±3 ng/ml at 30 minutes (FIG. 5).
Details of the plasma concentration studies are shown in Tables 1-8 (psilocybin) and 9-16 (psilocin). Values in italics are below the lower level of quantitation (BLQ, <1 ng/mL) but were included in calculations. Values in bold and underlined are considered to be outliers and were omitted from calculations. Measured dosing solution concentrations were 0.0460, 0.0967, 0.948 and 9.65 mg/mL for 0.05, 0.1, 1 and 10 […].

[3] = 0.05 mg/kg S.C., 24 rats, standard conditions
[4] = 0.05-0.1 mg/kg S.C., standard conditions

**Q.** Which results are given for `CN(C)CCc1c[nH]c2cccc(OP(=O)(O)O)c12` [psilocybin, 4-phosphoryloxy-N,N-dimethyltryptamine]?
**A.** procognitive effect measured as % correct (Long Evans rats; [3]): slight non-significant increase; pro-cognitive effect measured as % hit (Long Evans rats; [3]): increased; pro-cognitive effect measured as % hit (Long Evans rats; 0.05 mg/kg and 0.1 mg/kg S.C., low performers): increased; response speed (Long Evans rats; 0.05 mg/kg, low attentive cohort compared with vehicle): increased response speed; performance: response speed, number of trials completed (Long Evans rats; [4]): no effect on response speed, or number of trials completed; premature or perseverative responses (Long Evans rats; [4]): no effect on premature or perseverative responses; pro-cognitive effect measured as % correct (Long Evans rats; 0.05 and 0.1 mg/kg S.C., low performers): slight non-significant increase; effect on accuracy (% correct and % hit) (Long Evans rats; 0.05 and 0.1 mg/kg, low attentive subgroup (N=8) compared with vehicle): strongly evident; detrimental effects on performance (motivation, motor control, attention, response speed) (Long Evans rats; low doses used in PR and 5CSRTT studies (0.025-0.2 mg/kg S.C.)): no detrimental effects; psilocybin blood levels [1]: 2 to 5 ng/mL; Plasma concentration of psilocybin, Mean ([2]; psilocybin 0.05 mg/kg s.c., 0.25 h): 0.0062 µg/mL; Plasma concentration of psilocybin, Mean ([2]; psilocybin 0.05 mg/kg s.c., 0.5 h): 0.0125 µg/mL; Plasma concentration of psilocybin, Mean ([2]; psilocybin 0.05 mg/kg s.c., 0.75 h): 0.00107 µg/mL; Plasma concentration of psilocybin, Mean ([2]; psilocybin 0.05 mg/kg s.c., 1 h): 0.0192 µg/mL; Plasma concentration of psilocybin, Mean ([2]; psilocybin 0.05 mg/kg s.c., 2 h): 0.000594 µg/mL; Plasma concentration of psilocybin, Mean ([2]; psilocybin 0.05 mg/kg s.c., 4 h): 0.00195 µg/mL; Plasma concentration of psilocybin, Mean ([2]; psilocybin 0.05 mg/kg s.c., 6 h): 0.00212 µg/mL; Plasma concentration of psilocybin, Mean ([2]; psilocybin 0.1 mg/kg s.c., 0.25 h): 0.0217 µg/mL; Plasma concentration of psilocybin, Mean ([2]; psilocybin 0.1 mg/kg s.c., 0.5 h): 0.0289 µg/mL; Plasma concentration of psilocybin, Mean ([2]; psilocybin 0.1 mg/kg s.c., 0.75 h): 0.00296 µg/mL; Plasma concentration of psilocybin, Mean ([2]; psilocybin 0.1 mg/kg s.c., 1 h): 0.00219 µg/mL; Plasma concentration of psilocybin, Mean ([2]; psilocybin 0.1 mg/kg s.c., 2 h): 0.00176 µg/mL; Plasma concentration of psilocybin, Mean ([2]; psilocybin 0.1 mg/kg s.c., 4 h): 0.00255 µg/mL; Plasma concentration of psilocybin, Mean ([2]; psilocybin 0.1 mg/kg s.c., 6 h): 0.000921 µg/mL; Plasma concentration of psilocybin, Mean ([2]; psilocybin 1.0 mg/kg s.c., 0.25 h): 0.0752 µg/mL; Plasma concentration of psilocybin, Mean ([2]; psilocybin 1.0 mg/kg s.c., 0.5 h): 0.0473 µg/mL; Plasma concentration of psilocybin, Mean ([2]; psilocybin 1.0 mg/kg s.c., 0.75 h): 0.0358 µg/mL; Plasma concentration of psilocybin, Mean ([2]; psilocybin 1.0 mg/kg s.c., 1 h): 0.0351 µg/mL; Plasma concentration of psilocybin, Mean ([2]; psilocybin 1.0 mg/kg s.c., 2 h): 0.00219 µg/mL; Plasma concentration of psilocybin, Mean ([2]; psilocybin 1.0 mg/kg s.c., 4 h): 0.00112 µg/mL; Plasma concentration of psilocybin, Mean ([2]; psilocybin 1.0 mg/kg s.c., 6 h): 0.000929 µg/mL; Plasma concentration of psilocybin, Mean ([2]; psilocybin 10 mg/kg s.c., 0.25 h): 1.03 µg/mL; Plasma concentration of psilocybin, Mean ([2]; psilocybin 10 mg/kg s.c., 0.5 h): 1.544 µg/mL; Plasma concentration of psilocybin, Mean ([2]; psilocybin 10 mg/kg s.c., 0.75 h): 0.344 µg/mL; Plasma concentration of psilocybin, Mean ([2]; psilocybin 10 mg/kg s.c., 1 h): 0.269 µg/mL; Plasma concentration of psilocybin, Mean ([2]; psilocybin 10 mg/kg s.c., 2 h): 0.101 µg/mL; Plasma concentration of psilocybin, Mean ([2]; psilocybin 10 mg/kg s.c., 4 h): 0.0018 µg/mL; Plasma concentration of psilocybin, Mean ([2]; psilocybin 10 mg/kg s.c., 6 h): 0.00132 µg/mL; AUC0-tlast, Mean ([2]; psilocybin 0.05 mg/kg s.c.): 0.0107 µg·h/mL; Cmax, Mean ([2]; psilocybin 0.05 mg/kg s.c.): 0.0189 µg/mL; Cmax/Dose, Mean ([2]; psilocybin 0.05 mg/kg s.c.): 377 kg·ng/mL/mg; tmax, Mean ([2]; psilocybin 0.05 mg/kg s.c.): 36 min; AUC0-tlast, Mean ([2]; psilocybin 0.1 mg/kg s.c.): 0.0114 µg·h/mL; Cmax, Mean ([2]; psilocybin 0.1 mg/kg s.c.): 0.0314 µg/mL; Cmax/Dose, Mean ([2]; psilocybin 0.1 mg/kg s.c.): 314 kg·ng/mL/mg; tmax, Mean ([2]; psilocybin 0.1 mg/kg s.c.): 19.3 min; AUC0-inf, Mean ([2]; psilocybin 1.0 mg/kg s.c.): 0.0479 µg·h/mL; AUC0-inf/Dose, Mean ([2]; psilocybin 1.0 mg/kg s.c.): 47.9 kg·ng·h/mL/mg; AUC0-tlast, Mean ([2]; psilocybin 1.0 mg/kg s.c.): 0.0531 µg·h/mL; Apparent t1/2, Mean ([2]; psilocybin 1.0 mg/kg s.c.): 26.7 min; Cmax, Mean ([2]; psilocybin 1.0 mg/kg s.c.): 0.0783 µg/mL; Cmax/Dose, Mean ([2]; psilocybin 1.0 mg/kg s.c.): 78.3 kg·ng/mL/mg; MRT0-inf, Mean ([2]; psilocybin 1.0 mg/kg s.c.): 44.8 min; tmax, Mean ([2]; psilocybin 1.0 mg/kg s.c.): 21.4 min; AUC0-inf, Mean ([2]; psilocybin 10 mg/kg s.c.): 2.156 µg·h/mL; AUC0-inf/Dose, Mean ([2]; psilocybin 10 mg/kg s.c.): 216 kg·ng·h/mL/mg; AUC0-tlast, Mean ([2]; psilocybin 10 mg/kg s.c.): 1.707 µg·h/mL; Apparent t1/2, Mean ([2]; psilocybin 10 mg/kg s.c.): 34 min; Cmax, Mean ([2]; psilocybin 10 mg/kg s.c.): 3.595 µg/mL; Cmax/Dose, Mean ([2]; psilocybin 10 mg/kg s.c.): 359 kg·ng/mL/mg; MRT0-inf, Mean ([2]; psilocybin 10 mg/kg s.c.): 43 min; tmax, Mean ([2]; psilocybin 10 mg/kg s.c.): 30 min
